In patent US9766197B2, “Methods for generating pH/ionic concentration gradient near electrode surfaces for modulating biomolecular interactions, and bubble detection using electrodes” (Robert Bosch GmbH, priority 2014, dated 2017):

Experiments:
[1] = Electrochemical modulation of pH at ITO working electrode monitored by GFP fluorescence intensity; format: physicochemical
Source text: After current was turned off, the pH recovered to neutral value within 50 seconds.
Electrode material used: The electrode material was indium tin oxide. The fluorescent protein used is GFP immobilized on a glass substrate which includes an array of electrodes. The GFP is applied as spots, each spot covers an area that overlaps with one electrode and an area that is not overlapping with an electrode.
The pH change at the surface of ITO working electrode is generated via current-driven oxidation of a redox active molecule, 2-methyl-1,4-dihydroquinone, in diluted phosphate buffer (pH=7.4) containing 0.1M Na2SO4. […] FIG. 10 is used as calibration curve to assess the pH values.

[2] = Electro-oxidation of ascorbic acid at indium tin oxide electrode (cyclic voltammetry); format: physicochemical; details: Indium tin oxide vs Ag/AgCl reference electrode
Source text: FIG. 7B: Cyclic voltammetric study of the oxidation of Ascorbic acid test in ITO electrodes.
(§1) Electrode material used: The electrode material was indium tin oxide. This is a semiconducting electrode surface with very large potential window in an aqueous solution.
Oxidation of ascorbic acid at the electrode surfaces produced H^+ ions and changed the electrode surface pH to a more acidic state: AH2→A+2H^++2e^−, where AH2 is ascorbic acid ([…]) (as shown in FIG. 5). The electrode potential at which it oxidizes was less than 0.5V for Indium tin oxide material vs Ag/AgCl reference electrode (as shown in FIG. 7). This potential was less than the voltages needed for the oxygen evolution reaction in aqueous solution. The ascorbic acid also acted as a sacrificial species to prevent electrochemical degradation of the surface chemistry.

[3] = target: Green Fluorescent Protein (GFP) (Aequorea victoria, UniProt P42212); experiment: Fluorescence intensity of GFP after incubation with benzoquinones (protein stability); format: biochemical; details: 0.5 mM benzoquinone, phosphate buffered saline, 30 min
Source text: Para-benzoquinones and ortho-benzoquinones (compounds 2, 4, 6, and 9 in FIG. 31) are susceptible to nucleophilic attack at the double bond of the ring (positions 2, 3, 5 and 6 in structure 2 of FIG. 31, positions 3, 4, 5 and 6 in structure 4 of FIG. 31, and positions 2 and 3 in structure 6 of FIG. 31). Introducing substituents at some or all of those positions can mitigate the problem of nucleophilic attack. For example, 1,4-benzoquinone (structure 2 in FIG. 31, where R1, R2, R3 and R4 are H) undergoes Michael addition reaction with amino groups of proteins (Loomis et al., Phytochemistry, 5, 423, (1966) and U.S. Pat. No. 6,753,312 B2). […] Fluorescence intensity of Green Fluorescent Protein (GFP) was measured after incubation with three different benzoquinones in phosphate buffered saline for 30 min (concentration of benzoquinones was 0.5 mM). The difference in fluorescence intensity indicates the varied effect that the different substitutions in benzoquinones have on the stability of GFP. Fluorescence intensity of GFP is indicative of its structural integrity. Losses in fluorescence intensity usually indicate loss of its tertiary structure (protein denaturation) (Yin D. X., Zhu L., Schimke R. T. Anal. Biochem. 1996, 235:195-201).

[4] = Electro-reduction of benzoquinone into hydroquinone to produce OH- ions; format: physicochemical
Source text: as §1
Reduction of benzoquinone (C6H4O2) into Hydroquinone (C6H6O2) can produce OH^− ions at −0.1V: BQ+2e^−+2H2O→HQ+2OH^− This reduction reaction increased the pH at the electrode interface.

Cc1cc(O)ccc1O [2-methyl-1,4-dihydroquinone]
solution pH after current-driven oxidation ([1]; 50 microamps for 30 second, diluted phosphate buffer pH 7.4, 0.1M Na2SO4, ITO working electrode): 5.5
time for pH to recover to neutral value after current was turned off ([1]; diluted phosphate buffer pH 7.4, 0.1M Na2SO4): ≤ 50 seconds

O=C1O[C@H]([C@@H](O)CO)C(O)=C1O [ascorbic acid]
electrode potential at which it oxidizes [2]: less than 0.5 V

O=C1C=CC(=O)C=C1 [unsubstituted benzoquinone, 1,4-benzoquinone]
loss in GFP fluorescence intensity after incubation [3]: 25%
potential of reduction producing OH- ions [4]: −0.1 V
